Experimental data reported in patent US5648244A, “Production, purification, cleavage and use of fusion peptides” (President and Fellows of Harvard College, priority 1993, dated 1997).

Tested on: yeast MATa/sst1Δ strain EY957
Test: Yeast cell arrest (halo) assay
Type: cell-based
Source text: The mature wild-type α-Factor peptide is a 13 amino acid pheromone secreted by type […] yeast cells, which upon binding to the α-Factor receptor transmits a signal to an internally located G-protein. Once activated, this G protein triggers a series of intracellular events which lead to cellular differentiation (Elion et al., Cell, 60:649-664 (1990)). In the presence of external α-Factor, yeast cells in the early G1 phase of growth will undergo cell cycle arrest. The bioactivity of each recombinant α-Factor could easily be determined in halo assays as a region of low cell density surrounding a central disk spotted with α-Factor (FIG. 5).
Lawns of yeast MATa/sst1Δ strain EY957 were grown on YPD plates and were tested for α-Factor sensitivity as previously described (Elion et al., Cell, 60:649-664 (1990)). α-Factor peptides were dissolved in DMSO and spotted on sterile 6.5 mm paper disks. Peptide amounts were as follows: Wild-type α-Factor (αFWT)-595 pmoles; αI13-homoserine-lactone (αI13-HSl)-6,850 pmoles; αI13-homoserine (αI13-HS)-1,130 pmoles; αI13-homoserine-amide (αI13-HSA)-2,820 pmoles. The zones of inhibition (z.o.i.) for each peptide is the diameter of the low cell density region. […]
^c The zone of inhibition in mm (z.o.i.) was measured for each series […]

For “WHWLQLKPGQPMY [αFWT, Wild-type α-factor from Sigma, 13 amino acid yeast pheromone, reference compound]”, the “CA50 (cell arrest50)” value (amount of peptide per disk required to cause 50% of cell arrest) was 74 ± 5 pmol and the “z.o.i.int (y-intercept of upper asymptote of zone of inhibition curve)” value (relative maximal effect, z.o.i. vs pmoles spotted per 6.5 mm disk) was 29 mm.
